The values that follow come from patent publication US20250353891A1 (MEDIMMUNE LIMITED, priority 2022, published 2025).

Starred links: 1 amine or outer side, 2 acyl side, 3 side chain; linkers in the order of their positions; H or OH if unused. Non-standard residues stand in square brackets, D forms with d. Residues, ends and D or L forms follow the SMILES beside them. Groups on a side chain read outwards from the residue. *: point of attachment. C20 diacid = O=C(O)CCCCCCCCCCCCCCCCCCC(=O)*; C18 diacid = O=C(O)CCCCCCCCCCCCCCCCC(=O)*; γGlu = O=C(O)[C@H](CCC(=O)[*:2])N[*:1]; αMeF = C[C@](N)(Cc1ccccc1)C(=O)O; AEEA = NCCOCCOCC(=O)O; Aib = CC(C)(N)C(=O)O

Experiment [1] has as its target human glucagon receptor (hGCGR) (Homo sapiens, UniProt P47871). Description: cAMP production (HTRF) in CHO cells expressing hGCGR. The class given is cell-based. Set-up: expressed in transfected cells. Conditions: Table 6, peptides modified at position 17; cAMP in CHO hGCGR cells; geometric mean; read-out: hGluc-R EC50. The method in brief:
(§1)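 Read-out: HTRF cAMP (anti-cAMP cryptate donor, cAMP-d2 acceptor in conjugate/lysis buffer), converted to % Delta F and fitted by 4-parameter logistic for EC50. Cell densities were 1×10^5 cells/mL (hGLP-1R) or 2×10^5 cells/mL (hGCGR). Stimulation lasted 30 min at room temperature.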

For experiment [2], the target named is human GLP-1 receptor (hGLP-1R) (Homo sapiens, UniProt P43220). Description: cAMP production (HTRF) in CHO cells expressing hGLP-1R. Also noted: expressed in transfected cells. The class given is cell-based. Conditions: for EC50: Table 6, peptides modified at position 17, cAMP in CHO hGLP-1R cells, geometric mean, read-out: hGLP-1R EC50; for % Relative Potency Ratio: Table 6, % GLP-1R activity relative to GLP-1 / % GlucR activity relative to glucagon. The method in brief: as §1
(Cyclic AMP is a second messenger, typically raised through Gs and lowered through Gi signalling.)

Sequence of human GLP-1 receptor (hGLP-1R) (P43220 24-463): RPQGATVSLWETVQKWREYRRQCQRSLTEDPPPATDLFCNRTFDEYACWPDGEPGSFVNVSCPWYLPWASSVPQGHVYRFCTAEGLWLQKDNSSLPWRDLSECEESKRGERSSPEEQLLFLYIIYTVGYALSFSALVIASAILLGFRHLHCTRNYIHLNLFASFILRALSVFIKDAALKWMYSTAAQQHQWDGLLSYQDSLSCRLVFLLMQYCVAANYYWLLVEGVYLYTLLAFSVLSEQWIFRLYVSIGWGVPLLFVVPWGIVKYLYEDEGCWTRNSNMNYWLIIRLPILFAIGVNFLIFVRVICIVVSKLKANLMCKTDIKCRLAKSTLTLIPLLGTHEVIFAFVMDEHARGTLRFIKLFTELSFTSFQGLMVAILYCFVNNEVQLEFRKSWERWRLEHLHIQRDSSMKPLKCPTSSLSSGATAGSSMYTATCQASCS
Sequence of human glucagon receptor (hGCGR) (P47871 26-477): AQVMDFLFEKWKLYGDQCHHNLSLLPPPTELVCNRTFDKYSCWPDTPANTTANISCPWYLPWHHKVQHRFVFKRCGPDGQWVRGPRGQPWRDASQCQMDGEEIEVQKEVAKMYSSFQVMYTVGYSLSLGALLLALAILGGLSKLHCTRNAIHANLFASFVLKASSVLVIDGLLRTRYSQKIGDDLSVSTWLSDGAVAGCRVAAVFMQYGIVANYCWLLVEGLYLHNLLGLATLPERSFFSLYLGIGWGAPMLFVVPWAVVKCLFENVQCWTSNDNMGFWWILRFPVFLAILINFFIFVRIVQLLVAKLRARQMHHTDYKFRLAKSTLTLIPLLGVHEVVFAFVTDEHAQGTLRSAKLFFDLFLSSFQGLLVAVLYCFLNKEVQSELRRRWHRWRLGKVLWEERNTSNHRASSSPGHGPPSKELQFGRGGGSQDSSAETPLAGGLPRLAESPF

As usually defined, the EC50 is the concentration that produces a half-maximal response. As to `CC(C)C[C@H](NC(=O)[C@H](Cc1c[nH]c2ccccc12)NC(=O)[C@H](CCCNC(=N)N)NC(=O)[C@@H](NC(=O)[C@H](Cc1ccccc1)NC(=O)[C@H](CC(=O)O)NC(=O)[C@H](CCC(N)=O)NC(=O)[C@H](C)NC(=O)[C@H](CCCNC(=N)N)NC(=O)[C@H](CCCCNC(=O)COCCOCCNC(=O)COCCOCCNC(=O)CC[C@H](NC(=O)CCCCCCCCCCCCCCCCCCC(=O)O)C(=O)O)NC(=O)[C@@H](NC(=O)[C@H](CC(=O)O)NC(=O)[C@H](CC(C)C)NC(=O)[C@](C)(Cc1ccccc1)NC(=O)[C@H](CCCCN)NC(=O)[C@H](CO)NC(=O)[C@@H](NC(=O)[C@H](CC(=O)O)NC(=O)[C@H](CO)NC(=O)[C@@H](NC(=O)[C@H](Cc1ccccc1)NC(=O)[C@@H](NC(=O)CNC(=O)[C@H](CCC(N)=O)NC(=O)C(C)(C)NC(=O)[C@@H](N)Cc1c[nH]cn1)[C@@H](C)O)[C@@H](C)O)C(C)C)[C@@H](C)O)C(C)C)C(=O)N[C@@H](CC(C)C)C(=O)N[C@@H](CCCNC(=N)N)C(=O)NC(C)(C)C(=O)N[C@@H](C)C(=O)O` [Peptide 498] (H-H[Aib]QGTFTSDVSK[αMeF]LDTK([AEEA-AEEA-γGlu-C20 diacid])RAQDFVRWLLR[Aib]A-OH; N-terminus assumed), the EC50 in experiment [1] worked out at 0.17 nM. Moreover, in experiment [2], the EC50 turned out to be 0.156 nM and the “% Relative Potency Ratio” value came to 2.1.

Consider `CC(C)C[C@H](NC(=O)[C@H](Cc1c[nH]c2ccccc12)NC(=O)[C@H](CCC(N)=O)NC(=O)[C@@H](NC(=O)[C@H](Cc1ccccc1)NC(=O)[C@H](CC(=O)O)NC(=O)[C@H](CCC(N)=O)NC(=O)[C@H](C)NC(=O)[C@H](CCCNC(=N)N)NC(=O)[C@H](CCCCNC(=O)COCCOCCNC(=O)COCCOCCNC(=O)CC[C@H](NC(=O)CCCCCCCCCCCCCCCCC(=O)O)C(=O)O)NC(=O)[C@@H](NC(=O)[C@H](CC(=O)O)NC(=O)[C@H](CC(C)C)NC(=O)[C@](C)(Cc1ccccc1)NC(=O)[C@H](CCCCN)NC(=O)[C@H](CO)NC(=O)[C@@H](NC(=O)[C@H](CC(=O)O)NC(=O)[C@H](CO)NC(=O)[C@@H](NC(=O)[C@H](Cc1ccccc1)NC(=O)[C@@H](NC(=O)CNC(=O)[C@H](CCC(N)=O)NC(=O)C(C)(C)NC(=O)[C@@H](N)Cc1c[nH]cn1)[C@@H](C)O)[C@@H](C)O)C(C)C)[C@@H](C)O)C(C)C)C(=O)N[C@@H](CC(C)C)C(=O)N[C@@H](CCCNC(=N)N)C(=O)NC(C)(C)C(=O)N[C@@H](C)C(=O)O` [Peptide 499] (H-H[Aib]QGTFTSDVSK[αMeF]LDTK([AEEA-AEEA-γGlu-C18 diacid])RAQDFVQWLLR[Aib]A-OH; N-terminus assumed), for which the EC50 in experiment [1] was 0.0788 nM. Besides, in experiment [2], the concentration for a half-maximal effect (EC50) was 0.0406 nM and the “% Relative Potency Ratio” value is 3.8.

On to `CC(C)C[C@H](NC(=O)[C@H](Cc1c[nH]c2ccccc12)NC(=O)[C@H](CCC(N)=O)NC(=O)[C@@H](NC(=O)[C@H](Cc1ccccc1)NC(=O)[C@H](CC(=O)O)NC(=O)[C@H](CCC(N)=O)NC(=O)[C@H](C)NC(=O)[C@H](CCCNC(=N)N)NC(=O)[C@H](CCCCNC(=O)COCCOCCNC(=O)COCCOCCNC(=O)CC[C@H](NC(=O)CCCCCCCCCCCCCCCCCCC(=O)O)C(=O)O)NC(=O)[C@@H](NC(=O)[C@H](CC(=O)O)NC(=O)[C@H](CC(C)C)NC(=O)[C@](C)(Cc1ccccc1)NC(=O)[C@H](CCCCN)NC(=O)[C@H](CO)NC(=O)[C@@H](NC(=O)[C@H](CC(=O)O)NC(=O)[C@H](CO)NC(=O)[C@@H](NC(=O)[C@H](Cc1ccccc1)NC(=O)[C@@H](NC(=O)CNC(=O)[C@H](CCC(N)=O)NC(=O)C(C)(C)NC(=O)[C@@H](N)Cc1c[nH]cn1)[C@@H](C)O)[C@@H](C)O)C(C)C)[C@@H](C)O)C(C)C)C(=O)N[C@@H](CC(C)C)C(=O)N[C@@H](CCCNC(=N)N)C(=O)NC(C)(C)C(=O)N[C@@H](C)C(=O)O` [Peptide 500] (H-H[Aib]QGTFTSDVSK[αMeF]LDTK([AEEA-AEEA-γGlu-C20 diacid])RAQDFVQWLLR[Aib]A-OH; N-terminus assumed), for which the values for the EC50 in experiment [1] and in experiment [2] were 0.101 nM and 0.102 nM, respectively. For the same molecule, the “% Relative Potency Ratio” value in experiment [2] worked out at 2.0.

Take `CC(C)C[C@H](NC(=O)[C@H](Cc1c[nH]c2ccccc12)NC(=O)[C@H](CCC(N)=O)NC(=O)[C@@H](NC(=O)[C@H](Cc1ccccc1)NC(=O)[C@H](CC(=O)O)NC(=O)[C@H](CCCNC(=N)N)NC(=O)[C@H](C)NC(=O)[C@H](CCCNC(=N)N)NC(=O)[C@H](CCCCNC(=O)COCCOCCNC(=O)COCCOCCNC(=O)CC[C@H](NC(=O)CCCCCCCCCCCCCCCCC(=O)O)C(=O)O)NC(=O)[C@@H](NC(=O)[C@H](CC(=O)O)NC(=O)[C@H](CC(C)C)NC(=O)[C@](C)(Cc1ccccc1)NC(=O)[C@H](CCCCN)NC(=O)[C@H](CO)NC(=O)[C@@H](NC(=O)[C@H](CC(=O)O)NC(=O)[C@H](CO)NC(=O)[C@@H](NC(=O)[C@H](Cc1ccccc1)NC(=O)[C@@H](NC(=O)CNC(=O)[C@H](CCC(N)=O)NC(=O)C(C)(C)NC(=O)[C@@H](N)Cc1c[nH]cn1)[C@@H](C)O)[C@@H](C)O)C(C)C)[C@@H](C)O)C(C)C)C(=O)N[C@@H](CC(C)C)C(=O)N[C@@H](CCCNC(=N)N)C(=O)NC(C)(C)C(=O)N[C@@H](C)C(=O)O` [Peptide 501] (H-H[Aib]QGTFTSDVSK[αMeF]LDTK([AEEA-AEEA-γGlu-C18 diacid])RARDFVQWLLR[Aib]A-OH; N-terminus assumed): the concentration for a half-maximal effect (EC50) in experiment [1] was determined as 0.0756 nM; in experiment [2], 0.0265 nM. In addition, the “% Relative Potency Ratio” value in experiment [2] worked out at 5.6.

For `CC(C)C[C@H](NC(=O)[C@H](Cc1c[nH]c2ccccc12)NC(=O)[C@H](CCC(N)=O)NC(=O)[C@@H](NC(=O)[C@H](Cc1ccccc1)NC(=O)[C@H](CC(=O)O)NC(=O)[C@H](CCCNC(=N)N)NC(=O)[C@H](C)NC(=O)[C@H](CCCNC(=N)N)NC(=O)[C@H](CCCCNC(=O)COCCOCCNC(=O)COCCOCCNC(=O)CC[C@H](NC(=O)CCCCCCCCCCCCCCCCCCC(=O)O)C(=O)O)NC(=O)[C@@H](NC(=O)[C@H](CC(=O)O)NC(=O)[C@H](CC(C)C)NC(=O)[C@](C)(Cc1ccccc1)NC(=O)[C@H](CCCCN)NC(=O)[C@H](CO)NC(=O)[C@@H](NC(=O)[C@H](CC(=O)O)NC(=O)[C@H](CO)NC(=O)[C@@H](NC(=O)[C@H](Cc1ccccc1)NC(=O)[C@@H](NC(=O)CNC(=O)[C@H](CCC(N)=O)NC(=O)C(C)(C)NC(=O)[C@@H](N)Cc1c[nH]cn1)[C@@H](C)O)[C@@H](C)O)C(C)C)[C@@H](C)O)C(C)C)C(=O)N[C@@H](CC(C)C)C(=O)N[C@@H](CCCNC(=N)N)C(=O)NC(C)(C)C(=O)N[C@@H](C)C(=O)O` [Peptide 502] (H-H[Aib]QGTFTSDVSK[αMeF]LDTK([AEEA-AEEA-γGlu-C20 diacid])RARDFVQWLLR[Aib]A-OH; N-terminus assumed), the concentration giving a half-maximal response (EC50) in experiment [1] was 0.175 nM. Besides, in experiment [2], the half-maximal effective concentration (EC50) worked out at 0.0821 nM and the “% Relative Potency Ratio” value was found to be 4.2.

As for `CC(C)C[C@H](NC(=O)[C@H](Cc1c[nH]c2ccccc12)NC(=O)[C@H](CCCNC(=N)N)NC(=O)[C@@H](NC(=O)[C@H](Cc1ccccc1)NC(=O)[C@H](CC(=O)O)NC(=O)[C@H](CCC(N)=O)NC(=O)[C@H](C)NC(=O)[C@H](CCCNC(=N)N)NC(=O)[C@H](CCCCNC(=O)COCCOCCNC(=O)COCCOCCNC(=O)CC[C@H](NC(=O)CCCCCCCCCCCCCCCCCCC(=O)O)C(=O)O)NC(=O)[C@@H](NC(=O)[C@H](CC(=O)O)NC(=O)[C@H](CC(C)C)NC(=O)[C@](C)(Cc1ccccc1)NC(=O)[C@H](CCCCN)NC(=O)[C@H](CO)NC(=O)[C@@H](NC(=O)[C@H](CC(=O)O)NC(=O)[C@H](CO)NC(=O)[C@@H](NC(=O)[C@H](Cc1ccccc1)NC(=O)[C@@H](NC(=O)CNC(=O)[C@H](CCC(N)=O)NC(=O)C(C)(C)NC(=O)[C@@H](N)Cc1c[nH]cn1)[C@@H](C)O)[C@@H](C)O)C(C)C)[C@@H](C)O)C(C)C)C(=O)N[C@@H](CC(C)C)C(=O)N[C@@H](CCC(=O)O)C(=O)NC(C)(C)C(=O)N[C@@H](CCCCN)C(=O)O` [Peptide 503], in experiment [1], the EC50 was determined as 0.0849 nM. In experiment [2], the EC50 was 0.0812 nM and the “% Relative Potency Ratio” value is given as 2.1.

On to `CC(C)C[C@H](NC(=O)[C@H](Cc1c[nH]c2ccccc12)NC(=O)[C@H](CCCNC(=N)N)NC(=O)[C@@H](NC(=O)[C@H](Cc1ccccc1)NC(=O)[C@H](CC(=O)O)NC(=O)[C@H](CCC(N)=O)NC(=O)[C@H](C)NC(=O)[C@H](CCCNC(=N)N)NC(=O)[C@H](CCCCNC(=O)COCCOCCNC(=O)COCCOCCNC(=O)CC[C@H](NC(=O)CCCCCCCCCCCCCCCCCCC(=O)O)C(=O)O)NC(=O)[C@H](CO)NC(=O)[C@H](CCC(=O)O)NC(=O)[C@H](CC(C)C)NC(=O)[C@](C)(Cc1ccccc1)NC(=O)[C@H](CCCCN)NC(=O)[C@H](CO)NC(=O)[C@@H](NC(=O)[C@H](CC(=O)O)NC(=O)[C@H](CO)NC(=O)[C@@H](NC(=O)[C@H](Cc1ccccc1)NC(=O)[C@@H](NC(=O)CNC(=O)[C@H](CCC(N)=O)NC(=O)C(C)(C)NC(=O)[C@@H](N)Cc1c[nH]cn1)[C@@H](C)O)[C@@H](C)O)C(C)C)C(C)C)C(=O)N[C@@H](CC(C)C)C(=O)N[C@@H](CCC(=O)O)C(=O)NC(C)(C)C(=O)N[C@@H](CCCCN)C(=O)O` [Peptide 504], for which the results for the EC50 in experiment [1] and in experiment [2] were 0.551 nM and 0.124 nM, respectively. Moreover, the “% Relative Potency Ratio” value in experiment [2] is reported as 8.8.
